From patent US20250262201A1, “COMPOUNDS AND METHODS USEFUL FOR STABILIZING PHENYLALANINE HYDROXYLASE MUTATIONS” (Agios Pharmaceuticals, Inc., priority 2022, published 2025) come the findings set out here.

The structures appear in SMILES notation.

The test deals with T1, human PAH with the R408W mutation (Homo sapiens, UniProt P00439, R408W).
T1 construct: expressed in transfected cells
T1 sequence (P00439 1-452 R408W): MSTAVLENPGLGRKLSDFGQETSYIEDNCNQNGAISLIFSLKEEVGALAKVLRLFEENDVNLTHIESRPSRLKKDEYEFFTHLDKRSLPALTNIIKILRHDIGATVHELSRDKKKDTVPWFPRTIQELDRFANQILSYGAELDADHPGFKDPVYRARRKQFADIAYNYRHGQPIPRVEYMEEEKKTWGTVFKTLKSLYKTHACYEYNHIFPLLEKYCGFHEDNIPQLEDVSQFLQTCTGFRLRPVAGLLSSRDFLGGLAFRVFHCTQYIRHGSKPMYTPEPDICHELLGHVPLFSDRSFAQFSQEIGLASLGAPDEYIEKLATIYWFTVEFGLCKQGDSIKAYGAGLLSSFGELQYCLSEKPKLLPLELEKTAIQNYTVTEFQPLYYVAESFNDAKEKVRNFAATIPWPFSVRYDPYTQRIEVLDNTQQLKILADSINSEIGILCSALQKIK
Briefly: Cell Based Phenylalanine Flux Assay. As to conditions: A375 cells expressing human R408W PAH; 24 hrs compound incubation; 13C-Tyrosine by LC-MS; average where tested multiple times; read-out: AC50.
For orientation: AC50 means the concentration at which the activity in the assay is half-maximal. In the case of `O=C(c1nsc2ccccc12)N1CCc2[nH]cnc2[C@H]1c1cc2ccccc2cn1` [Example 358, (R)-benzo[d]isothiazol-3-yl(4-(isoquinolin-3-yl)-6,7-dihydro-1H-imidazo[4,5-c]pyridin-5(4H)-yl)methanone], the concentration at half-maximal activity (AC50) was under 500 nM.
The value for `O=C(c1n[nH]c2ccccc12)N1CCc2[nH]cnc2[C@H]1c1cc2ccccc2cn1` [Example 359, (3a,7a-dihydro-1H-indazol-3-yl)((R)-4-(isoquinolin-3-yl)-6,7-dihydro-1H-imidazo[4,5-c]pyridin-5(4H)-yl)methanone] was under 500 nM; that for `Cn1nc(C(=O)N2CCc3[nH]cnc3[C@H]2c2cc3ccccc3cn2)c2ccccc21` [Example 360, (R)-(4-(isoquinolin-3-yl)-6,7-dihydro-1H-imidazo[4,5-c]pyridin-5(4H)-yl)(1-methyl-1H-indazol-3-yl)methanone] was under 500 nM.
The same measure for `Cc1nnc(C(=O)N2CCc3[nH]cnc3[C@H]2c2cc3ccccc3cn2)s1` [Example 361, (R)-(4-(isoquinolin-3-yl)-6,7-dihydro-1H-imidazo[4,5-c]pyridin-5(4H)-yl)(5-methyl-1,3,4-thiadiazol-2-yl)methanone]: 500 to 1000 nM.
The same measure for `O=C(c1ccn2ncccc12)N1CCc2[nH]cnc2[C@H]1c1cc2ccccc2cn1` [Example 362, (R)-(4-(isoquinolin-3-yl)-6,7-dihydro-1H-imidazo[4,5-c]pyridin-5(4H)-yl)(pyrrolo[1,2-b]pyridazin-5-yl)methanone]: under 500 nM; for `CN(C)C(=O)c1nnc(N2CCc3[nH]cnc3[C@H]2c2cc3ccccc3cn2)o1` [Example 363, (R)-5-(4-(isoquinolin-3-yl)-6,7-dihydro-1H-imidazo[4,5-c]pyridin-5(4H)-yl)-N,N-dimethyl-1,3,4-oxadiazole-2-carboxamide]: 500 to 1000 nM.
Take `O=C(c1nnc(-c2ccccc2)s1)N1CCc2[nH]cnc2[C@H]1c1cc2ccccc2cn1` [Example 364, (R)-(4-(isoquinolin-3-yl)-6,7-dihydro-1H-imidazo[4,5-c]pyridin-5(4H)-yl)(5-phenyl-1,3,4-thiadiazol-2-yl)methanone]: the concentration at half-maximal activity (AC50) was under 500 nM.
The same measure for `c1ccc(-c2nnc(N3CCc4[nH]cnc4[C@H]3c3cc4ccccc4cn3)o2)nc1` [Example 365, (R)-2-(4-(isoquinolin-3-yl)-6,7-dihydro-1H-imidazo[4,5-c]pyridin-5(4H)-yl)-5-(pyridin-2-yl)-1,3,4-oxadiazole]: 500 to 1000 nM.
The value for `CN(C)c1nnc(C(=O)N2CCc3[nH]cnc3[C@H]2c2cc3ccccc3cn2)o1` [Example 366, (R)-(5-(dimethylamino)-1,3,4-oxadiazol-2-yl)(4-(isoquinolin-3-yl)-6,7-dihydro-1H-imidazo[4,5-c]pyridin-5(4H)-yl)methanone] was under 500 nM; that for `CN(C)c1nnc(C(=O)N2CCc3[nH]cnc3[C@@H]2c2cc3ccccc3cn2)o1` [Example 367, (S)-(5-(dimethylamino)-1,3,4-oxadiazol-2-yl)(4-(isoquinolin-3-yl)-6,7-dihydro-1H-imidazo[4,5-c]pyridin-5(4H)-yl)methanone] was over 5000 nM; that for `O=C(Cc1nc(C(F)(F)F)cs1)N1CCc2[nH]cnc2[C@H]1c1cc2ccccc2cn1` [Example 368, (R)-1-(4-(isoquinolin-3-yl)-6,7-dihydro-1H-imidazo[4,5-c]pyridin-5(4H)-yl)-2-(4-(trifluoromethyl)thiazol-2-yl)ethanone] was under 500 nM.
The value for `O=C(Cn1cncn1)N1CCc2[nH]cnc2[C@H]1c1cc2ccccc2cn1` [Example 369, (R)-1-(4-(isoquinolin-3-yl)-6,7-dihydro-1H-imidazo[4,5-c]pyridin-5(4H)-yl)-2-(1H-1,2,4-triazol-1-yl)ethanone] was 500 to 1000 nM; that for `O=C(c1nnc(NC2CC2)o1)N1CCc2[nH]cnc2[C@H]1c1cc2ccccc2cn1` [Example 370, (R)-(5-(cyclopropylamino)-1,3,4-oxadiazol-2-yl)(4-(isoquinolin-3-yl)-6,7-dihydro-1H-imidazo[4,5-c]pyridin-5(4H)-yl)methanone] was 500 to 1000 nM.
